Results on 17 compounds are retold here after patent US8178658B2 (Dow AgroSciences, LLC, priority 2008, dated 2012).

Molecules are shown by their SMILES.

Assay [1] deals with beet armyworm (BAW; Spodoptera exigua: Lepidoptera). The experiment in a line: 96-well microtiter plate-based high throughput (HTS) diet bioassay on beet armyworm (BAW HTS). Format: in vivo. To be noted: for BAW HTS: BAW eggs, 12 μg test compound per well, mortality at 6 d post-treatment, mortality class; for pest or weed control at 12 µg/well, 12 µg/well: Spodoptera exigua, 144 h, read-out: BAW HTS. Put shortly:
(§1)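 Percent larval mortality after six days was the endpoint. Higher-throughput plates used eggs, 12 μg compound per well and 29° C darkness; trays used second instar larvae, a 50 μg/cm^2 dose and 25° C with 14:10 light cycle.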

The test system is the same in assay [2]. The experiment in a line: 128-well diet tray assay on beet armyworm (BAW 50). Format: in vivo. To be noted: for BAW 50 ug/cm2: 128-well diet tray assay, 50 μg/cm^2 of test compound on diet, second instar BAW larvae, mortality class; for pest or weed control at 50 µg/cm2, 50 µg/cm2: Spodoptera exigua, 144 h, read-out: BAW 50 ug/cm2. Put shortly:
as §1

Setting [3] is: 96-well microtiter plate HTS diet assay.

Consider `CCO[C@@H]1[C@@H](OC)[C@H](C)O[C@@H](OC(=O)Nc2ccc(N3CCN(c4ccc(OC(F)(F)F)cc4)C3=O)cc2)[C@@H]1OC` [Compound 188], for which the “BAW HTS” value in assay [1] (96-well HTS diet assay) is “B (either (1) the compound was tested and less than 50 percent mortality was observed or (2) the compound was not tested)”; in assay [1] (setting [3]) it was “B (either (1) the compound was tested and less than 50 percent mortality was observed or (2) the compound was not tested)”. The “BAW 50 ug/cm2” value in assay [2] is “A (the compound was tested and at least 50 percent mortality was observed)”.
Turning to `CO[C@@H]1[C@@H](OC)[C@H](C)O[C@@H](OC(=O)Nc2ccc(-n3cnc(-c4ccc(C(F)(F)F)cc4)n3)cc2Cl)[C@@H]1OC` [Compound 189, {2-chloro-4-[3-(4-trifluoromethylphenyl)-[1,2,4]triazol-1-yl]-phenyl}-carbamic acid (2S,3R,4R,5S,6S)-3,4,5-trimethoxy-6-methyl-tetrahydropyran-2-yl ester], the “BAW HTS” value in assay [1] (setting [3]) was “A (the compound was tested and at least 50 percent mortality was observed)”. The pest or weed control at 12 µg/well, 12 µg/well in assay [1] is above 50%. Further, in assay [2], the “BAW 50 ug/cm2” value is “A (the compound was tested and at least 50 percent mortality was observed)”; the pest or weed control at 50 µg/cm2, 50 µg/cm2 was above 50%.
As for `CO[C@@H]1[C@@H](OC)[C@H](C)O[C@H](OC(=O)Nc2ccc(-n3cnc(-c4ccc(C(F)(F)F)cc4)n3)cc2Cl)[C@@H]1OC` [Compound 190, {2-chloro-4-[3-(4-trifluoromethylphenyl)-[1,2,4]triazol-1-yl]-phenyl}-carbamic acid (2R,3R,4R,5S,6S)-3,4,5-trimethoxy-6-methyl-tetrahydropyran-2-yl ester], in assay [1] (setting [3]), the “BAW HTS” value was “A (the compound was tested and at least 50 percent mortality was observed)”. The pest or weed control at 12 µg/well, 12 µg/well in assay [1] is above 50%. Also, in assay [2], the “BAW 50 ug/cm2” value is “A (the compound was tested and at least 50 percent mortality was observed)”; the pest or weed control at 50 µg/cm2, 50 µg/cm2 is above 50%.
Consider `CO[C@@H]1[C@@H](OC)[C@H](C)O[C@@H](OC(=O)Nc2ccc(-c3ncn(-c4ccc(OC(F)(F)F)cc4)n3)cc2)[C@@H]1OC` [Compound 191, {4-[1-(4-trifluoromethoxyphenyl)-1H-[1,2,4]triazol-3-yl]-phenyl}-carbamic acid (2S,3R,4R,5S,6S)-3,4,5-trimethoxy-6-methyl-tetrahydropyran-2-yl ester], for which the “BAW HTS” value in assay [1] (setting [3]) is “A (the compound was tested and at least 50 percent mortality was observed)”. Besides, the pest or weed control at 12 µg/well, 12 µg/well in assay [1] was above 50%. In assay [2], the “BAW 50 ug/cm2” value was “A (the compound was tested and at least 50 percent mortality was observed)”; the pest or weed control at 50 µg/cm2, 50 µg/cm2 was above 50%.
For `CCO[C@@H]1[C@@H](OC)[C@H](C)O[C@@H](OC(=O)Nc2ccc(-c3ncn(-c4ccc(C(F)(F)F)cc4)n3)cc2)[C@@H]1OC` [Compound 192], the “BAW HTS” value in assay [1] (96-well HTS diet assay) was “A (the compound was tested and at least 50 percent mortality was observed)”; in assay [1] (setting [3]), “A (the compound was tested and at least 50 percent mortality was observed)”. The “BAW 50 ug/cm2” value in assay [2] was “A (the compound was tested and at least 50 percent mortality was observed)”.
`CCO[C@@H]1[C@@H](OC)[C@H](C)O[C@@H](OC(=O)Nc2ccc(-c3ncn(-c4ccc(OC(F)(F)F)cc4)n3)cc2)[C@@H]1OC` [Compound 193]: the “BAW HTS” value in assay [1] (96-well HTS diet assay) was “B (either (1) the compound was tested and less than 50 percent mortality was observed or (2) the compound was not tested)”; in assay [1] (setting [3]), “B (either (1) the compound was tested and less than 50 percent mortality was observed or (2) the compound was not tested)”. Moreover, the “BAW 50 ug/cm2” value in assay [2] was “A (the compound was tested and at least 50 percent mortality was observed)”.
Regarding `CO[C@@H]1[C@@H](OC)[C@H](C)O[C@@H](OC(=O)Nc2ccc(-c3nc(C)n(-c4ccc(OC(F)(F)F)cc4)n3)cc2)[C@@H]1OC` [Compound 194], the “BAW HTS” value in assay [1] (96-well HTS diet assay) is “A (the compound was tested and at least 50 percent mortality was observed)”; in assay [1] (setting [3]), “A (the compound was tested and at least 50 percent mortality was observed)”. Besides, the “BAW 50 ug/cm2” value in assay [2] was “A (the compound was tested and at least 50 percent mortality was observed)”.
As for `CO[C@@H]1[C@@H](OC)[C@H](C)O[C@H](OC(=O)Nc2ccc(-c3nc(C)n(-c4ccc(OC(F)(F)F)cc4)n3)cc2)[C@@H]1OC` [Compound 195], the “BAW HTS” value in assay [1] (96-well HTS diet assay) was “B (either (1) the compound was tested and less than 50 percent mortality was observed or (2) the compound was not tested)”; in assay [1] (setting [3]), “B (either (1) the compound was tested and less than 50 percent mortality was observed or (2) the compound was not tested)”. Besides, in assay [2], the “BAW 50 ug/cm2” value is “A (the compound was tested and at least 50 percent mortality was observed)”.
As to `CO[C@@H]1[C@@H](OC)[C@H](C)O[C@@H](OC(=O)Nc2ccc(-c3ncn(-c4ccc(Oc5ccc(Cl)cc5)cc4)n3)cc2)[C@@H]1OC` [Compound 196], the “BAW HTS” value in assay [1] (96-well HTS diet assay) was “A (the compound was tested and at least 50 percent mortality was observed)”; in assay [1] (setting [3]), “A (the compound was tested and at least 50 percent mortality was observed)”. For the same compound, the “BAW 50 ug/cm2” value in assay [2] is “A (the compound was tested and at least 50 percent mortality was observed)”.
Regarding `CCCCO[C@@H]1[C@@H](OC)[C@H](C)O[C@@H](OC(=O)Nc2ccc(-n3cnc(-c4ccc(C)cc4)n3)cc2)[C@@H]1OC` [Compound 197], the “BAW HTS” value in assay [1] (96-well HTS diet assay) is “A (the compound was tested and at least 50 percent mortality was observed)”; in assay [1] (setting [3]), “A (the compound was tested and at least 50 percent mortality was observed)”. The “BAW 50 ug/cm2” value in assay [2] is “A (the compound was tested and at least 50 percent mortality was observed)”.
Turning to `CCCCO[C@@H]1[C@@H](OC)[C@H](C)O[C@@H](OC(=O)Nc2ccc(-n3cnc(-c4ccc(C(F)(F)F)cc4)n3)cc2)[C@@H]1OC` [Compound 198], the “BAW HTS” value was “A (the compound was tested and at least 50 percent mortality was observed)” in assay [1] (96-well HTS diet assay); “A (the compound was tested and at least 50 percent mortality was observed)” in assay [1] (setting [3]). Also, in assay [2], the “BAW 50 ug/cm2” value is “A (the compound was tested and at least 50 percent mortality was observed)”.
Regarding `CCCCO[C@@H]1[C@@H](OC)[C@H](C)O[C@H](OC(=O)Nc2ccc(-n3cnc(-c4ccc(C(F)(F)F)cc4)n3)cc2)[C@@H]1OC` [Compound 199], the “BAW HTS” value in assay [1] (96-well HTS diet assay) was “A (the compound was tested and at least 50 percent mortality was observed)”; in assay [1] (setting [3]) it was “A (the compound was tested and at least 50 percent mortality was observed)”. Further, the “BAW 50 ug/cm2” value in assay [2] was “A (the compound was tested and at least 50 percent mortality was observed)”.
`CO[C@@H]1[C@@H](OC)[C@H](C)O[C@@H](OC(=O)Nc2ccc(-c3ncn(-c4ccc(OC(F)(F)C(F)(F)F)cc4)n3)cc2)[C@@H]1OC` [Compound 200]: the “BAW HTS” value in assay [1] (96-well HTS diet assay) is “A (the compound was tested and at least 50 percent mortality was observed)”; in assay [1] (setting [3]), “A (the compound was tested and at least 50 percent mortality was observed)”. Moreover, in assay [2], the “BAW 50 ug/cm2” value is “A (the compound was tested and at least 50 percent mortality was observed)”.
Consider `CCO[C@@H]1[C@@H](OC)[C@H](C)O[C@@H](OC(=O)Nc2ccc(-c3ncn(-c4ccc(OC(F)(F)C(F)(F)F)cc4)n3)cc2)[C@@H]1OC` [Compound 201, {4-[1-(4-pentafluoroethyloxyphenyl)-1H-[1,2,4]triazol-3-yl]-phenyl}-carbamic acid (2S,3R,4R,5S,6S)-4-ethoxy-3,5-dimethoxy-6-methyl-tetrahydropyran-2-yl ester], for which, in assay [1] (setting [3]), the “BAW HTS” value was “A (the compound was tested and at least 50 percent mortality was observed)”. Also, the pest or weed control at 12 µg/well, 12 µg/well in assay [1] is above 50%. Further, in assay [2], the “BAW 50 ug/cm2” value is “A (the compound was tested and at least 50 percent mortality was observed)”; the pest or weed control at 50 µg/cm2, 50 µg/cm2 is above 50%.
As to `CCO[C@@H]1[C@@H](OC)[C@H](C)O[C@H](OC(=O)Nc2ccc(-c3ncn(-c4ccc(OC(F)(F)C(F)(F)F)cc4)n3)cc2)[C@@H]1OC` [Compound 202, {4-[1-(4-pentafluoroethyloxyphenyl)-1H-[1,2,4]triazol-3-yl]-phenyl}-carbamic acid (2R,3R,4R,5S,6S)-4-ethoxy-3,5-dimethoxy-6-methyl-tetrahydropyran-2-yl ester], in assay [1] (setting [3]), the “BAW HTS” value is “A (the compound was tested and at least 50 percent mortality was observed)”. The pest or weed control at 12 µg/well, 12 µg/well in assay [1] is above 50%. Moreover, in assay [2], the “BAW 50 ug/cm2” value is “A (the compound was tested and at least 50 percent mortality was observed)”; the pest or weed control at 50 µg/cm2, 50 µg/cm2 is above 50%.
In the case of `CCO[C@@H]1[C@@H](OC)[C@H](C)O[C@@H](OC(=S)Nc2ccc(-c3ncn(-c4ccc(OC(F)(F)C(F)(F)F)cc4)n3)cc2)[C@@H]1OC` [Compound 203, {4-[1-(4-pentafluoroethyloxy-phenyl)-1H-[1,2,4]triazol-3-yl]-phenyl}-thiocarbamic acid (2S,3R,4R,5S,6S)-4-ethoxy-3,5-dimethoxy-6-methyl-tetrahydropyran-2-yl ester], the “BAW HTS” value in assay [1] (setting [3]) was “A (the compound was tested and at least 50 percent mortality was observed)”. The pest or weed control at 12 µg/well, 12 µg/well in assay [1] was above 50%. Also, in assay [2], the “BAW 50 ug/cm2” value is “A (the compound was tested and at least 50 percent mortality was observed)”; the pest or weed control at 50 µg/cm2, 50 µg/cm2 was above 50%.
With `C=CCO[C@@H]1[C@@H](OC)[C@H](C)O[C@@H](OC(=O)Nc2ccc(-c3ncn(-c4ccc(OC(F)(F)C(F)(F)F)cc4)n3)cc2)[C@@H]1OC` [Compound 204], the “BAW HTS” value in assay [1] (96-well HTS diet assay) is “A (the compound was tested and at least 50 percent mortality was observed)”; in assay [1] (setting [3]), “A (the compound was tested and at least 50 percent mortality was observed)”. In assay [2], the “BAW 50 ug/cm2” value was “A (the compound was tested and at least 50 percent mortality was observed)”.
